From PubChem BioAssay (NCI)
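Interpolation was linear, between the two tested concentrations surrounding the appropriate level; five concentrations were tested over 48 hours in 96-well plates. Here, GI50 denotes the concentration required for 50% inhibition of growth. TGI is the concentration that stops growth completely.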

Key:
Test in all cases: growth of human tumour cells (NCI), 48 h
786-0 renal = system: 786-0 renal
HOP-92 NSCLC = system: HOP-92 NSCLC
LOX IMVI melanoma = system: LOX IMVI melanoma
SK-MEL-5 melanoma = system: SK-MEL-5 melanoma
SN12C renal = system: SN12C renal
SNB-19 CNS = system: SNB-19 CNS
UO-31 renal = system: UO-31 renal
MALME-3M melanoma = system: MALME-3M melanoma
MDA-MB-231 breast = system: MDA-MB-231 breast
T-47D breast = system: T-47D breast

Row | Compound | TGI (786-0 renal) | TGI (HOP-92 NSCLC) | TGI (LOX IMVI melanoma) | TGI (SK-MEL-5 melanoma) | TGI (SN12C renal) | TGI (SNB-19 CNS) | TGI (UO-31 renal) | TGI (MALME-3M melanoma) | GI50 (786-0 renal) | GI50 (MALME-3M melanoma) | GI50 (MDA-MB-231 breast) | TGI (MDA-MB-231 breast) | GI50 (SK-MEL-5 melanoma) | GI50 (T-47D breast) | TGI (T-47D breast) | GI50 (HOP-92 NSCLC) | GI50 (LOX IMVI melanoma) | GI50 (SN12C renal) | GI50 (SNB-19 CNS) | GI50 (UO-31 renal)
1 | COc1cc([C@@H]2OC(=O)C3C2C(=O)O[C@H]3c2cc(OC)c(OC)c(OC)c2)cc(OC)c1OC (stereo not given in full) | > 100 µM | > 100 µM | > 100 µM | > 100 µM | > 100 µM | > 100 µM | > 100 µM | – | – | – | – | – | – | – | – | – | – | – | – | –
2 | N#CC(C#N)=C1SCC(=O)CS1 | > 100 µM | > 100 µM | > 100 µM | > 100 µM | > 100 µM | > 100 µM | > 100 µM | > 100 µM | – | – | – | – | – | – | – | – | – | – | – | –
3 | COc1cc([N+](=O)[O-])c(OC)cc1-c1nc2sc(Cl)cn2c1/C=N/NC(=N)N/N=C/c1c(-c2cc(OC)c([N+](=O)[O-])cc2OC)nc2sc(Cl)cn12 | 3.29 µM | – | – | 3.12 µM | – | – | – | 3.28 µM | 1840 nM | 1610 nM | 1590 nM | 3.4 µM | 1660 nM | 1980 nM | 5.07 µM | – | – | – | – | –
4 | CC1=C(C(=O)Nc2ccc(F)c(Cl)c2)C(c2cccc(Oc3ccccc3)c2)NC(=O)N1 (stereo not given) | 29.8 µM | 24.9 µM | 28.7 µM | 26.5 µM | 32.8 µM | 31.3 µM | 26 µM | – | 15400 nM | – | 16000 nM | 30.3 µM | 13200 nM | 15700 nM | 34.6 µM | 12000 nM | 15.4 µM | 16.1 µM | 16 µM | 12.2 µM
5 | Cc1nn(-c2nc3ccccc3[nH]2)c2c1C(c1ccc3c(c1)OCO3)CC(=O)N2 (stereo not given) | 21.9 µM | 7.14 µM | – | 3.76 µM | 9.77 µM | > 100 µM | 8.14 µM | 6.04 µM | 3650 nM | 2120 nM | 2180 nM | 5.22 µM | 1880 nM | 3610 nM | > 39.6 µM | 2660 nM | – | 2.77 µM | 4.45 µM | 2.73 µM
6 | N#C[S-].[Au+].c1ccc(CN2[CH-]N(Cc3ccccc3)C(c3ccccc3)=C2c2ccccc2)cc1 | 1.91 µM | 1 µM | – | – | – | – | – | 1.15 µM | 444 nM | 284 nM | – | – | – | – | – | 292 nM | – | – | – | –
7 | CCOC(=O)NC(=O)c1cn(CCN2CCN(C(=O)NCCCCCCNC(=O)N3CCN(CCn4cc(C(=O)NC(=O)OCC)c(=O)n(CCN(CC)CC)c4=O)CC3)CC2)c(=O)n(CCC(CC)CC)c1=O | > 100 µM | > 100 µM | > 100 µM | > 100 µM | > 100 µM | > 100 µM | > 100 µM | > 100 µM | – | – | – | – | – | – | – | – | – | – | – | –
8 | C[CH2][Sn]([Cl])([Cl])[CH2]C | > 56 µM | 36.2 µM | 33.1 µM | > 100 µM | > 78.6 µM | > 91.9 µM | > 100 µM | 30.3 µM | 28900 nM | 15800 nM | – | – | 45500 nM | – | – | 19700 nM | 17.5 µM | 35.1 µM | 39.5 µM | 97.8 µM
9 | C=C(C)[C@H](O)C(O)CC(C)[C@@H]1CCC23CC12CCC1[C@@]2(C)CCC(OC(C)=O)C(C)(C)C2CC(OC2OC(COC(C)=O)C(O)C(O)C2O)[C@]13C (stereo not given in full) | 13.7 µM | 11 µM | 10.7 µM | – | 13 µM | 11.6 µM | 14.5 µM | 14.7 µM | – | – | – | – | – | – | – | – | – | – | – | –
10 | O=C1CCCC1NC(=O)C(F)(F)F (stereo not given) | > 100 µM | > 100 µM | – | > 100 µM | > 100 µM | > 100 µM | > 100 µM | > 100 µM | – | – | – | – | – | – | – | – | – | – | – | –
11 | Clc1ccc(SCCCCCCCCCCSc2ccc(Cl)cc2)cc1 | > 70.4 µM | > 100 µM | > 100 µM | > 69.3 µM | > 100 µM | > 100 µM | > 100 µM | > 70.3 µM | – | – | – | – | – | – | – | – | – | – | – | –
12 | CN1CCn2c(c(Sc3ccc(C(=O)NO)cc3)c3ccccc32)C1=O | 3.64 µM | 3.53 µM | 3.66 µM | 3.15 µM | 5.58 µM | 9.99 µM | 13.6 µM | – | 1890 nM | – | 2130 nM | 5.09 µM | 1700 nM | 1530 nM | 3.91 µM | 1670 nM | 1.78 µM | 2.13 µM | 2.34 µM | 3.1 µM
13 | c1ccc(SC(CCCCOC2CCCCO2)Sc2ccccc2)cc1 (stereo not given) | > 100 µM | > 100 µM | > 100 µM | > 100 µM | > 100 µM | > 100 µM | 76.5 µM | > 100 µM | – | – | – | – | – | – | – | – | – | – | – | –
14 | Cc1cccc2c1C(=O)OC2(C)c1cccc2ccccc12 (stereo not given) | > 100 µM | 61.4 µM | > 100 µM | 45.3 µM | 56 µM | > 100 µM | > 100 µM | > 100 µM | – | – | – | – | – | – | – | – | – | – | – | –
15 | CC(=O)c1c[nH]cc1CO | > 10 µM | > 10 µM | > 10 µM | > 10 µM | > 10 µM | > 10 µM | > 10 µM | > 10 µM | – | – | – | – | – | – | > 10 µM | – | – | – | – | –
16 | COc1ccc2c(c1)CC1c3c(cc4c(c3-2)OCO4)CCN1C (stereo not given) | > 100 µM | 57 µM | – | 30.6 µM | > 100 µM | > 100 µM | 36.6 µM | 83.3 µM | – | – | – | – | – | – | – | – | – | – | – | –
17 | C=CCN=C1NC(=O)C(CC(=O)Nc2ccc(C)cc2)S1 (stereo not given) | > 100 µM | – | > 100 µM | > 100 µM | > 100 µM | > 100 µM | > 100 µM | > 100 µM | – | – | – | – | – | – | – | – | – | – | – | –
18 | Cc1cccc2c1C/C(=C1\CCc3c(C)cccc31)C2=O | > 100 µM | – | > 100 µM | > 100 µM | > 100 µM | > 100 µM | > 100 µM | > 100 µM | – | – | – | – | – | – | – | – | – | – | – | –
19 | O=C(N/C(=C\c1ccc(Oc2ccc(Cl)c(Cl)c2)cc1)c1nc2ccccc2[nH]1)c1ccccc1 | 33 µM | 23.5 µM | – | 30.4 µM | 35.5 µM | 36.3 µM | 27.6 µM | 43.8 µM | – | – | – | – | – | – | – | – | – | – | – | –
20 | NC(CCSC(F)F)C(=O)O (stereo not given) | > 100 µM | > 100 µM | > 100 µM | > 100 µM | > 100 µM | > 100 µM | > 100 µM | > 100 µM | – | – | – | – | – | – | – | – | – | – | – | –
21 | CCOc1ccccc1NC(=O)C1=C(C)NC(C)=C(C(=O)Nc2ccccc2OCC)C1c1ccc(NC(C)=O)cc1 | > 100 µM | > 100 µM | > 100 µM | > 100 µM | > 100 µM | > 100 µM | > 100 µM | > 100 µM | – | – | – | – | – | – | – | – | – | – | – | –
